The source of these data is patent publication US20240002397A1, “3-AMINO PYRROLIDINE AND PIPERIDINE MACROCYCLIC OREXIN RECEPTOR AGONISTS” (Merck Sharp & Dohme LLC, priority 2020, published 2024).

The term Emax denotes the maximal effect, on the per cent scale that the assay sets.

One experiment has as its target T1, human OX2R (Homo sapiens, UniProt O43614).
T1 sequence (O43614 1-444): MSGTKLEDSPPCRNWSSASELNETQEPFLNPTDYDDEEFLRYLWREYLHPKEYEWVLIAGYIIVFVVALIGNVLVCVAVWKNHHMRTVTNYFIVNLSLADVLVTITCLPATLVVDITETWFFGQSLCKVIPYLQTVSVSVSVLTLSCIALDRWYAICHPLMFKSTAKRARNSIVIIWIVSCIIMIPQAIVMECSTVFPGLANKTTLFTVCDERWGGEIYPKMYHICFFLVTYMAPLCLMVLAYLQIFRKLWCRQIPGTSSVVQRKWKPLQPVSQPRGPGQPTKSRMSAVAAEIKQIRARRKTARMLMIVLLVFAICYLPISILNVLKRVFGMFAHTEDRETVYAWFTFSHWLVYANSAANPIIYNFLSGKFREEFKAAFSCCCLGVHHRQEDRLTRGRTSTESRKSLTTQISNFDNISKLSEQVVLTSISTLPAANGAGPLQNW
Kind of experiment: IPOne (IP-1) orexin receptor agonist assay in CHO cells expressing human OX2R. Particulars: CHO, hOX2R IP-One; percentage of mean max effect of a reference compound at 1 uM with 100% activity.
As for `CS(=O)(=O)N[C@H]1C[C@@H](CO)N2C(=O)OCCOc3ccc(C(F)(F)F)c(n3)[C@H]3CC[C@H](CC3)OC[C@@H]12` [Example 96, N-((2^1R,2^4R,5^2R,5^3S,5^5S)-5^5-(hydroxymethyl)-6-oxo-1^3-(trifluoromethyl)-3,7,10-trioxa-1(2,6)-pyridina-5(2,1)-pyrrolidina-2(1,4)-cyclohexanacyclodecaphane-5^3-yl)methanesulfonamide], the Emax was found to be 100%.

With `C[C@@H]1C[C@H](NS(C)(=O)=O)C2COC3CCC(CC3)c3cnc(F)c(c3)OCCCOC(=O)N21` (stereo partly drawn) [Example 55, N-((2^1S,2^4S,5^2R,5^3S,5^5R)-1^6-fluoro-5^5-methyl-6-oxo-3,7,11-trioxa-1(3,5)-pyridina-5(2,1)-pyrrolidina-2(1,4)-cyclohexanacycloundecaphane-5^3-yl)methanesulfonamide], the Emax turned out to be 103%.

`Cc1cc2nc(c1)C1CCC(CC1)OCC1[C@@H](NS(C)(=O)=O)C[C@@H](C)N1C(=O)OCCO2` (stereo partly drawn) [Example 66, N-((2^1S,2^4S,5^2R,5^3S,5^5R)-1^4,5^5-dimethyl-6-oxo-3,7,10-trioxa-1(2,6)-pyridina-5(2,1)-pyrrolidina-2(1,4)-cyclohexanacyclodecaphane-5^3-yl)methanesulfonamide] showed an Emax of 95%.

Molecule `COc1cc2nc(c1)C1CCC(CC1)OCC1[C@@H](NS(=O)(=O)C(F)F)C[C@@H](C)N1C(=O)OCCO2` (stereo partly drawn) [Example 105, 1,1-difluoro-N-((2^1R,2^4R,5^2R,5^3S,5^5R)-14-methoxy-5^5-methyl-6-oxo-3,7,10-trioxa-1(2,6)-pyridina-5(2,1)-pyrrolidina-2(1,4)-cyclohex-anacyclodecaphane-5^3-yl)methanesulfonamide] displayed an Emax of 99.7%.

In turn, `CN(C)S(=O)(=O)N[C@H]1CCCN2C(=O)OCCCCOc3cccc(c3)C3CCC(CC3)OC[C@@H]12` [Example 26, N′-((2^1S,2^4S,5^2R,5^3S)-6-oxo-3,7,12-trioxa-5(2,1)-piperidina-1(1,3)-benzena-2(1,4)-cyclohexanacyclododecaphane-5^3-yl)-N,N-dimethy-sulfamide] yielded an Emax of 94.1%.

`C[C@@H]1C[C@H](NS(C)(=O)=O)C2COC3CCC(CC3)c3cccc(c3)OCCOC(=O)N21` (stereo partly drawn) [Example 17, N-((2^1S,2^4S, 5^2R,5^3S,5^5R)-5^5-methyl-6-oxo-3,7,10-trioxa-5(2,1)-pyrrolidina-1(1,3)-benzena-2(1,4)-cyclohexana-cyclodecaphane-5^3-yl) methanesulfonamide] had an Emax of 100%.

`C[C@@H]1C[C@H](NS(C)(=O)=O)C2COC3CCC(CC3)c3ccc(F)c(n3)OCCOC(=O)N21` (stereo partly drawn) [Example 56, N-((2^1S,2^4S,5^2R,5^3S,5^5R)-1^5-fluoro-5^5-methyl-6-oxo-3,7,10-trioxa-1(2,6)-pyridina-5(2,1)-pyrrolidina-2(1,4)-cyclohexanacyclodecaphane-5^3-yl)methanesulfonamide] came in with an Emax of 98.2%.

`CCOc1cc2nc(c1)C1CCC(CC1)OCC1[C@@H](NS(C)(=O)=O)C[C@@H](C)N1C(=O)OCCCO2` (stereo partly drawn) [Example 78, N-((2^1S,2^4S,5^2R,5^3S,5^5R)-1^4-ethoxy-5^5-methyl-6-oxo-3,7,11-trioxa-1(2,6)-pyridina-5(2,1)-pyrrolidina-2(1,4)-cyclohexanacycloundecaphane-5^3-yl)methanesulfonamide]: the maximal response (Emax) turned out to be 100%.

`CCS(=O)(=O)N[C@H]1C[C@@H](C)N2C(=O)OCCCOc3cc(OC)cc(n3)C3CCC(CC3)OCC12` (stereo partly drawn) [Example 106, N-((2^1R,2^4R,5^2R,5^3S,5^5R)-1^4-methoxy-5^5-methyl-6-oxo-3,7,11-trioxa-1(2,6)-pyridina-5(2,1)-pyrrolidina-2(1,4)-cyclohex-anacycloundecaphane-5^3-yl)ethanesulfonamide] came in with a maximal response (Emax) of 97.3%.

Molecule `Cc1ccc2nc1C1CCC(CC1)OCC1[C@@H](NS(C)(=O)=O)C[C@@H](C)N1C(=O)OCCCO2` (stereo partly drawn) [Example 80, N-((2^1S,2^4S,5^2R,5^3S,5^5R)-1^3,5^5-dimethyl-6-oxo-3,7,11-trioxa-1(2,6)-pyridina-5(2,1)-pyrrolidina-2(1,4)-cyclohexanacycloundecaphane-5^3-yl)methanesulfonamide] yielded an Emax of 99.4%.

On to `CN(C)C[C@@H]1C[C@H](NS(C)(=O)=O)C2COC3CCC(CC3)c3cc(C(F)F)cc(n3)OCCCOC(=O)N21` (stereo partly drawn) [Example 100, N-((2^1S,2^4S,5^2R,5^3S,5^5S)-1^4-(difluoromethyl)-5^5-((dimethylamino)methyl)-6-oxo-3,7,11-trioxa-1(2,6)-pyridina-5(2,1)-pyrrolidina-2(1,4)-cyclohexanacycloundecaphane-5^3-yl)methanesulfonamide], for which the Emax was determined as 102%.

Turning to `C[C@@H]1C[C@H](NS(C)(=O)=O)C2COC3CCC(CC3)c3cccc(c3F)OCCCOC(=O)N21` (stereo partly drawn) [Example 47, N-((2^1S,2^4S, 5^2R,5^3S,5^5R)-1^2-fluoro-5^5-methyl-6-oxo-3,7,11-trioxa-5(2,1)-pyrrolidina-1(1,3)-benzena-2(1,4)-cyclohexana-cyclounde-caphane-5^3-yl)methane-sulfonamide], the Emax came out at 102%.

Consider `C[C@@H]1C[C@H](NS(C)(=O)=O)C2CO[C@H]3CC=C(CC3)c3cccc(c3F)OCCCOC(=O)N21` (stereo partly drawn) [Example 46, N-((2^1S,2^4S, 5^2R,5^3S,5^5R)-1^2-fluoro-5^5-methyl-6-oxo-3,7,11-trioxa-5(2,1)-pyrrolidina-1(1,3)-benzena-2(1,4)-cyclohexana-cyclounde-caphan-2^1-en-5^3-yl)methane-sulfonamide], for which the maximal response (Emax) is 102%.

For the molecule `CN(C)S(=O)(=O)N[C@H]1CCN2C(=O)CCCCNc3cccc(c3)[C@H]3CC[C@H](CC3)OC[C@@H]12` [Example 23, N′-((2^1S,2^4S,5^2R,5^3S)-6-oxo-3-oxa-11-aza-5(2,1)-pyrrolidina-1(1,3)-benzena-2(1,4)-cyclohexanacycloundecaphane-5^3-yl)-N,N-dimethyl-sulfamide], the Emax worked out at 102%.

`CN(C)S(=O)(=O)N[C@@H]1CCCN2C(=O)OCCCCOc3cccc(c3)C3CCC(CC3)OC[C@H]12` [Example 27, N′-((2^1R,2^4R,5^2S,5^3R)-6-oxo-3,7,12-trioxa-5(2,1)-piperidina-1(1,3)-benzena-2(1,4)-cyclohexanacyclododecaphane-5^3-yl)-N,N-dimethyl-sulfamide] showed an Emax of 4.1%.

The molecule `CS(=O)(=O)N[C@H]1CCCN2C(=O)CCCCOc3ccccc3[C@H]3CC[C@H](CC3)OC[C@@H]12` [Example 24, N-((2^1S,2^4S,5^2R,5^3S)-6-oxo-3,1′-dioxa-5(2,1)-piperidina-1(1,2)-benzena-2(1,4)-cyclohexanacycloundecaphane-5^3-yl)methanesulfonamide] showed an Emax of 99.2%.

The same experiment, now with this note: hOX2R IP-One; percentage of mean max effect of a reference compound at 1 uM with 100% activity.
As for `CN(C)S(=O)(=O)NC1CCCN2C(=O)OCCc3ccccc3C3CCC(CC3)OCC12` (single isomer, unassigned) [Example 39, N′-((2^1S,2^4S,5^2R,5^3S)-6-oxo-3,7-dioxa-5(2,1)-piperidina-1(1,2)-benzena-2(1,4)-cyclohexanacyclononaphane-5^3-yl)-N,N-dimethyl-sulfamide], the “Emax (%)” value came out at 4.4%.

For the molecule `CN(C)S(=O)(=O)NC1CCCN2C(=O)OCCc3ccccc3C3CCC(CC3)OCC12` (single isomer, unassigned) [Example 40, N′-((2^1S,2^4S,5^2R,5^3S)-6-oxo-3,7-dioxa-5(2,1)-piperidina-1(1,2)-benzena-2(1,4)-cyclohexanacyclononaphane-5^3-yl)-N,N-dimethyl-sulfamide], the “Emax (%)” value is on record as 71.6%.
